In article PMC6925188, “PBRM1 acts as a p53 lysine-acetylation reader to suppress renal tumor growth” (Nature Communications, 2019):

Legend:
[1] = test system: endogenous PBRM1 and p53; assay: Endogenous p53 immunoprecipitation, kidney cancer cell lines; type: cell-based; conditions: ACHN, Caki-1 and Ren-01; 50 μM, 8 h
Experimental: For endogenous p53 immunoprecipitations, cell pellets were lysed in EBC buffer with protease and phosphatase inhibitors, 2 μM TSA and 10 mM NAM. Lysates (approximately 2 mg of total protein) were incubated with 2 μg p53 antibody (DO-1) overnight at 4 °C followed by incubation with protein A/G plus Sepharose (sc-2003, Santa Cruz Biotechnology) for 2 h. Beads were washed with EBC buffer four times, mixed with 1X SDS loading buffer (1% mercaptoethanol, 0.01% Bromophenol blue, 6% Glycerol, 2% SDS, 50 mM Tris-Cl (pH 6.8)) and analyzed by SDS-PAGE and immunoblot.
Supplementary Figure 1. Endogenous PBRM1 and p53 physically associate in kidney […]
μM) for 8 h and harvested for immunoprecipitation with control IgG and p53 antibodies. The bound PBRM1 and p53 were examined by immunoblots. Source data are provided as a Source […]
(1 picture or pasted object on this page, not shown here)

[2] = test system: HCT116 cells; assay: RT-qPCR of p53 targets, HCT116 parental and PBRM1 KO cells; type: cell-based; parameters: PUMA expression / PIDD expression: reference not given here; conditions: 50 μM, 24 h
Experimental: Total RNA was extracted from cells using the RNeasy Plus Mini Kit (74136, Qiagen), and the concentration was measured using the NanoDrop ND-1000 system (Thermo Scientific). Reverse transcription was performed using the First Strand cDNA Synthesis Kit (NP100042, Origen) with 0.5 µg total RNA. Real-time PCR was performed with Maxima SYBR Green qPCR Master Mix (K0253, Thermo Scientific) using the Roche LightCycler 480. The primers used for real-time PCR are listed as follows: q-GAPDH-F: […], q-GAPDH-R: […], q-CDKN1A-F: […], q-CDKN1A-R: […], q-MDM2-F: […], q-MDM2-R: […], q-BAX-F: […], q-BAX-R: […], q-PUMA-F: […], q-PUMA-R: […], q-NOXA-F: […], q-NOXA-R: […], q-GADD45a-F: […], q-GADD45a-R: […], q-APAF1-F: […], q-APAF1-R: […], q-BAI1-F: […], q-BAI1-R: […], q-BCL2A1-F: […], q-BCL2A1-R: g[…], q-BTG2-F: […], q-BTG2-R: […], q-CDC25c-F: […], q-CDC25c-R: […], q-FAS-F: […], q-FAS-R: […], q-PIDD-F: […], q-PIDD-R: […], q-RPRM-F: […], q-RPRM-R: […], q-TNFRSF10B-F: […] and q-TNFRSF10B-R: […]. GAPDH was used as an internal control. Data are shown as mean ± SEM for three independent experiments.
Supplementary Figure 4. PBRM1 is required for full p53 transcriptional activity.
a, b. HCT116 parental and PBRM1 KO cells (combination of eight clones) were treated with
(a). RNA was extracted and reverse transcribed from the indicated cells treated with 50 μM
etoposide. […]
p-values were calculated using the paired two -tailed Student’s t-test. c, d. […]

Structure (SMILES): COc1cc([C@@H]2c3cc4c(cc3[C@@H](O[C@@H]3O[C@@H]5CO[C@@H](C)O[C@H]5[C@H](O)[C@H]3O)[C@H]3COC(=O)[C@H]23)OCO4)cc(OC)c1O [Etoposide]
- endogenous PBRM1 associated with endogenous p53 [1]: increased endogenous p53 associated with more endogenous PBRM1
- APAF1 expression ([2]; HCT116-PBRM1-KOs, assay 1): 3.8371
- BAX expression ([2]; HCT116-PBRM1-KOs, assay 1): 1.7963
- BCL2A1 expression ([2]; HCT116-PBRM1-KOs, assay 1): 19.7667
- BTG2 expression ([2]; HCT116-PBRM1-KOs, assay 1): 11.7942
- CDKN1A expression ([2]; HCT116-PBRM1-KOs, assay 1): 22.8639
- GADD45A expression ([2]; HCT116-PBRM1-KOs, assay 1): 3.9586
- MDM2 expression ([2]; HCT116-PBRM1-KOs, assay 1): 3.9724
- NOXA expression ([2]; HCT116-PBRM1-KOs, assay 1): 3.0525
- PIDD expression ([2]; HCT116-PBRM1-KOs, assay 1): 2.3295
- PUMA expression ([2]; HCT116-PBRM1-KOs, assay 1): 4.8793
- RPRM expression ([2]; HCT116-PBRM1-KOs, assay 1): 2.5491
- APAF1 expression ([2]; HCT116-PBRM1-KOs, assay 2): 1.6529
- BAX expression ([2]; HCT116-PBRM1-KOs, assay 2): 2.3457
- BCL2A1 expression ([2]; HCT116-PBRM1-KOs, assay 2): 6.9761
- BTG2 expression ([2]; HCT116-PBRM1-KOs, assay 2): 7.21
- CDKN1A expression ([2]; HCT116-PBRM1-KOs, assay 2): 14.0419
- GADD45A expression ([2]; HCT116-PBRM1-KOs, assay 2): 2.1289
- MDM2 expression ([2]; HCT116-PBRM1-KOs, assay 2): 5.9039
- NOXA expression ([2]; HCT116-PBRM1-KOs, assay 2): 3.6808
- PIDD expression ([2]; HCT116-PBRM1-KOs, assay 2): 1.4093
- PUMA expression ([2]; HCT116-PBRM1-KOs, assay 2): 7.235
- RPRM expression ([2]; HCT116-PBRM1-KOs, assay 2): 2.7797
- APAF1 expression ([2]; HCT116-PBRM1-KOs, assay 3): 1.6644
- BAX expression ([2]; HCT116-PBRM1-KOs, assay 3): 2.3134
- BCL2A1 expression ([2]; HCT116-PBRM1-KOs, assay 3): 9.2884
- BTG2 expression ([2]; HCT116-PBRM1-KOs, assay 3): 7.1602
- CDKN1A expression ([2]; HCT116-PBRM1-KOs, assay 3): 10.4953
- GADD45A expression ([2]; HCT116-PBRM1-KOs, assay 3): 3.1241
- MDM2 expression ([2]; HCT116-PBRM1-KOs, assay 3): 5.945
- NOXA expression ([2]; HCT116-PBRM1-KOs, assay 3): 3.6554
- PIDD expression ([2]; HCT116-PBRM1-KOs, assay 3): 1.4897
- PUMA expression ([2]; HCT116-PBRM1-KOs, assay 3): 3.2117
- RPRM expression ([2]; HCT116-PBRM1-KOs, assay 3): 1.3828
- APAF1 expression ([2]; HCT116, assay 1): 4.2871
- BAX expression ([2]; HCT116, assay 1): 2.7702
- BCL2A1 expression ([2]; HCT116, assay 1): 22.8639
- BTG2 expression ([2]; HCT116, assay 1): 12.7286
- CDKN1A expression ([2]; HCT116, assay 1): 28.6408
- GADD45A expression ([2]; HCT116, assay 1): 4.4076
- MDM2 expression ([2]; HCT116, assay 1): 4.6589
- NOXA expression ([2]; HCT116, assay 1): 3.0738
- PIDD expression ([2]; HCT116, assay 1): 3.0525
- PUMA expression ([2]; HCT116, assay 1): 4.4076
- RPRM expression ([2]; HCT116, assay 1): 3.6301
- APAF1 expression ([2]; HCT116, assay 2): 2.1372
- BAX expression ([2]; HCT116, assay 2): 2.6851
- BCL2A1 expression ([2]; HCT116, assay 2): 13.3173
- BTG2 expression ([2]; HCT116, assay 2): 8.1398
- CDKN1A expression ([2]; HCT116, assay 2): 17.6304
- GADD45A expression ([2]; HCT116, assay 2): 2.5584
- MDM2 expression ([2]; HCT116, assay 2): 5.7624
- NOXA expression ([2]; HCT116, assay 2): 3.8683
- PIDD expression ([2]; HCT116, assay 2): 2.0705
- PUMA expression ([2]; HCT116, assay 2): 5.3332
- RPRM expression ([2]; HCT116, assay 2): 2.9362
- APAF1 expression ([2]; HCT116, assay 3): 2.021
- BAX expression ([2]; HCT116, assay 3): 2.7226
- BCL2A1 expression ([2]; HCT116, assay 3): 11.9548
- BTG2 expression ([2]; HCT116, assay 3): 8.4269
- CDKN1A expression ([2]; HCT116, assay 3): 15.6707
- GADD45A expression ([2]; HCT116, assay 3): 3.0105
- MDM2 expression ([2]; HCT116, assay 3): 5.4264
- NOXA expression ([2]; HCT116, assay 3): 4.6765
- PIDD expression ([2]; HCT116, assay 3): 1.9453
- PUMA expression ([2]; HCT116, assay 3): 3.1939
- RPRM expression ([2]; HCT116, assay 3): 2.0097
